Laboratory results taken from publication PMC3172300, “Modulation of Catalytic Activity in Multi-Domain Protein Tyrosine Phosphatases” (PLoS ONE, 2011).
Values joined by “and” are separate entries in the source; they are usually repeats but may differ in a detail not shown here. Equal entries are not always repeated. Where two headings read alike, the source gives them in different places. Square brackets hold non-standard residues; d marks the D form. Ends that are not written are not given here. Peptide text beside a SMILES is read from it. pY = N[C@@H](Cc1ccc(OP(=O)(O)O)cc1)C(=O)O

Assays:
Type in all cases: biochemical
DLAR D1D2 = molecular target: T1, DLAR D1D2 (Drosophila melanogaster, UniProt P16621); experiment: Dephosphorylation of phosphotyrosine peptides (malachite green), DLAR D1D2; settings: for Km / Vmax / Kcat / Kcat/Km: 0.01 µM protein; for Km / Kcat / Kcat/Km: 25 mM citrate pH 6.0, 15 min at 25°C, malachite green; for Vmax: 25 mM citrate buffer pH 6.0, 100 mM NaCl, 2 mM DTT, 15 min at 25°C, Biomol Green, 650 nm, Michaelis-Menten fit; for substrate preference: order of peptide substrates, DLAR D1D2
T1 construct: DLAR 1448-2029; His tag (pET-15b or pET-22b); made in house; host or cells: E. coli BL21(DE3)
T1 sequence (P16621 1448-2029): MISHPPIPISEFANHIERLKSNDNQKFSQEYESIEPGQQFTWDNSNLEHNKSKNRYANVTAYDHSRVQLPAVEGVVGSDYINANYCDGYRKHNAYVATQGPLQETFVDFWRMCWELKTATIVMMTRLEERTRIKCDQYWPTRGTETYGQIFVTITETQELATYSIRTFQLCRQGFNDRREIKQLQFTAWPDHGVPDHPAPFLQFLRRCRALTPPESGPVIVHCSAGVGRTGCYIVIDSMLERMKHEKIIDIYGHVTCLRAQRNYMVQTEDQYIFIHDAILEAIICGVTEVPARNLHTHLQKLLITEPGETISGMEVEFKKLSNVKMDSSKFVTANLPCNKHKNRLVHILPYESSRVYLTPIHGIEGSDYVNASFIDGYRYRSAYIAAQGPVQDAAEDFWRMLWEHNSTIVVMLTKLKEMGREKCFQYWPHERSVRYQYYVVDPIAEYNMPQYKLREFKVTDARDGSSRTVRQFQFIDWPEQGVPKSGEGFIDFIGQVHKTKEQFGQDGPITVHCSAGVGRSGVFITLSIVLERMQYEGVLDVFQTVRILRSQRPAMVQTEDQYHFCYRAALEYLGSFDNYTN
From the text: (§1) Substrates of PTPs characterized thus far include the activation loop segments of various kinases and regulatory loops of other signaling proteins. Suitably designed peptide substrates mimic the physiologically relevant substrates of PTPs. In the present study, peptide substrates were designed for DLAR for which more information was available on its interacting partners. […] The five peptides were chosen based on their distinct charge distributions around the central phosphotyrosine residue. The phosphorylated as well as non-phosphorylated peptides were obtained from GL Bioscience, China. The peptides were >95% pure and were used after a single round of desalting using a Sephadex G25 column (GE Healthcare). The concentration of the peptide samples for biochemical studies was ascertained by UV absorption at 268 nm for the pY residue.
(§2) Phosphatase activity of the recombinant PTP domains was determined by using para-Nitrophenylphosphate (pNPP), a small molecule generic substrate, as well as phosphotyrosine containing peptides. The pNPP assay was performed as reported previously, with a modification in the buffer composition (25 mM Citrate, Glycine and HEPES (CGH), pH 6.5, 100 mM NaCl and 2 mM DTT). Phosphatase activity with the phosphotyrosine peptides was ascertained by the malachite green reaction as described for PTPs previously. Briefly, the reaction mixture comprised of 0.01 µM protein incubated with increasing concentrations of different peptides in 25 mM citrate buffer pH 6.0, 100 mM NaCl and 2 mM DTT for 15 min at 25°C. The reaction was stopped by the addition of the Biomol Green reagent (Enzo Life Sciences) and the colour developed after 20 min was quantified at 650 nm. For all the assays, kinetic constants for the steady state catalysis were obtained by fitting the reaction curves to the Michaelis-Menten equation using the nonlinear regression module of Sigma plot software (Systat Software, Inc.).

DLAR D1 D2HSS [1] = molecular target: T2, DLAR D1 D2HSS (Drosophila melanogaster, UniProt P16621, C1961S); settings: 0.01 µM protein; for Km / Kcat / Kcat/Km: 25 mM citrate pH 6.0, 15 min at 25°C, malachite green; for Vmax: 25 mM citrate buffer pH 6.0, 100 mM NaCl, 2 mM DTT, 15 min at 25°C, Biomol Green, 650 nm, Michaelis-Menten fit
T2 construct: DLAR 1448-2029; His tag (pET-15b or pET-22b); made in house; host or cells: E. coli BL21(DE3)
From the text: as §1, §2

DLAR D2 = molecular target: T3, DLAR D2 (Drosophila melanogaster, UniProt P16621); experiment: Peptide preference of the DLAR D2 domain from ratios of kcat/Km (D1D2 vs D1); settings: order of peptide substrates, from comparison of kcat/Km of D1D2 with D1
T3 construct: DLAR 1728-2029; His tag (pET-15b or pET-22b); made in house; host or cells: E. coli BL21(DE3)
T3 sequence (P16621 1728-2029): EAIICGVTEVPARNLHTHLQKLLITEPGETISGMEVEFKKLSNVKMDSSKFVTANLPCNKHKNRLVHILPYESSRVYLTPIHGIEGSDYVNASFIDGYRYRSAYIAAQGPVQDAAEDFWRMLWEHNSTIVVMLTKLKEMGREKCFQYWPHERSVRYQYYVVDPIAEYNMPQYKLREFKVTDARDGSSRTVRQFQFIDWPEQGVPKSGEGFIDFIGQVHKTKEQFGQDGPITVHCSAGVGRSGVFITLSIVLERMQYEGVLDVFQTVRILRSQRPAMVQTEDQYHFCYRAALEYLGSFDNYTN
Method: as §2
The difference between the most and least preferred substrate in the case of DLAR D1D2 was much less (∼16.0×10^4 sec^−1 M^−1 between Cuticle and Myospheroid peptides) when compared to DLAR D1 alone (∼130.0×10^4 sec^−1 M^−1 between Insulin Receptor and Abelson peptides). […] A more comprehensive study of this activation mechanism is being reported elsewhere.

DLAR D1 D2HSS [2] = molecular target: T2, DLAR D1 D2HSS; experiment: Phosphatase assay using pNPP, DLAR D1 D2HSS; settings: CGH buffer pH 6.5, 100 mM NaCl, 2 mM DTT
Method: as §2
The tandem PTP domains of PTP99A (PTP99A D1D2) and DLAR (DLAR D1D2) , the individual PTP domains (D1 and D2) as well as the active site mutants were expressed in E. coli and were purified using the protocols described earlier (Figure 1a, Figure S1a, b & c). The biochemical characterization and catalytic activity measurements were performed using pNPP as a substrate. […] Thus the D2 domain appears to have a regulatory role in both RPTPs- decreasing the catalytic activity in the case of DLAR while increasing the catalytic activity in the case of PTP99A (Figure 1b).

PTP99A D1 = molecular target: T4, PTP99A D1 (Drosophila melanogaster, UniProt P35832); experiment: Phosphatase assay using pNPP, PTP99A D1; design: PTP99A 450-756; His tag (pET-15b or pET-22b); made in house; host or cells: E. coli BL21(DE3); settings: CGH buffer pH 6.5, 100 mM NaCl, 2 mM DTT
T4 sequence (P35832 450-756): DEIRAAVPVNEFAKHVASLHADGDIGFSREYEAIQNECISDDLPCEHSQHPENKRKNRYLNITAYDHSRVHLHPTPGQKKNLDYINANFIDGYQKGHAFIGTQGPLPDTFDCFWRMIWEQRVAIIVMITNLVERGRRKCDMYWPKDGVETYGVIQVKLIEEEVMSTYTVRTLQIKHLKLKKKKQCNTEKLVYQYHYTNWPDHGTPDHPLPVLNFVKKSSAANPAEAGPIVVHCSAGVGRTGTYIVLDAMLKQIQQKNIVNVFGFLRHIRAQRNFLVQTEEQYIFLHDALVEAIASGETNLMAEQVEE
Method: as §2
The tandem PTP domains of PTP99A (PTP99A D1D2) and DLAR (DLAR D1D2) , the individual PTP domains (D1 and D2) as well as the active site mutants were expressed in E. coli and were purified using the protocols described earlier (Figure 1a, Figure S1a, b & c). […]

T2 sequence (P16621 1448-2029 C1961S): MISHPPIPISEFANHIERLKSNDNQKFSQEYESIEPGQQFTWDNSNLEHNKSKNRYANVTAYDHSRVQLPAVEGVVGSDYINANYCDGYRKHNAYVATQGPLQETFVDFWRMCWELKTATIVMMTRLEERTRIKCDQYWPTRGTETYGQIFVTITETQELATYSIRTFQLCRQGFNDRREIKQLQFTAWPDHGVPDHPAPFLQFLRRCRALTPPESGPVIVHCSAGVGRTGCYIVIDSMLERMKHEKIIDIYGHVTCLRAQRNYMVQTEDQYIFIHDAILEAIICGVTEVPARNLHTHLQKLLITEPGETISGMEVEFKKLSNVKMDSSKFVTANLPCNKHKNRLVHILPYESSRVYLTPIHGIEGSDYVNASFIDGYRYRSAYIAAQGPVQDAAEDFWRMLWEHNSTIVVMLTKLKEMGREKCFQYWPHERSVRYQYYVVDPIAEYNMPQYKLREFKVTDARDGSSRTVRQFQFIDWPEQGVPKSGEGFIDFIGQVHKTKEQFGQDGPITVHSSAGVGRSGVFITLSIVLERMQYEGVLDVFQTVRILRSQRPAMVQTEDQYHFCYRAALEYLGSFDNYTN

Compound	Km (DLAR D1D2)	Km (DLAR D1 D2HSS [1])	Vmax (DLAR D1D2)	Kcat (DLAR D1D2)	Kcat/Km (DLAR D1D2)	Km (DLAR D1D2; read-out: Km)	substrate preference (DLAR D1D2)	Vmax (DLAR D1 D2HSS [1])	Kcat (DLAR D1 D2HSS [1])	Kcat/Km (DLAR D1 D2HSS [1])	Km (DLAR D1 D2HSS [1]; read-out: Km)	peptide preference (DLAR D2)	Kcat (DLAR D1 D2HSS [2])	Kcat/Km (DLAR D1 D2HSS [2])	Vmax (DLAR D1 D2HSS [2]; Michaelis-Menten fit)	Kcat (PTP99A D1)	Vmax (PTP99A D1; Michaelis-Menten fit)
CC(C)C[C@H](NC(=O)[C@H](C)NC(=O)CNC(=O)[C@H](Cc1ccc(OP(=O)(O)O)cc1)NC(=O)[C@H](CC(=O)O)NC(=O)[C@@H]1CCCN1C(=O)[C@H](CCC(=O)O)NC(=O)[C@H](C)NC(=O)[C@@H](N)[C@@H](C)O)C(=O)N[C@@H](Cc1ccc(O)cc1)C(=O)N[C@@H](CCC(=O)O)C(=O)O [Cuticle peptide] (H-TAEPD[pY]GALYE-OH)	105 ± 12.4 µM	162 ± 13.8 µM															
RDDT[pY]TAHAG [Abelson peptide, phosphotyrosine peptide RDDTpYTAHAG from PeptideMine server, obtained from GL Bioscience, >95% pure]			3.39 ± 0.19 µmol/min/mg	4.05 ± 0.22 s⁻¹	17.96 ± 0.16 x 10^4 sec^-1M^-1	22.6 ± 4.88 µM	Cuticle peptide>Insulin receptor peptide>Nervous fingers peptide>Abelson peptide>Myospheroid peptide	0.6 ± 0.01 µmol/min/mg	0.72 ± 0.01 s⁻¹	5.82 ± 0.07 x 10^4 sec^-1M^-1	12.4 ± 1.07 µM	Insulin Receptor peptide>Nervous fingers peptide>Cuticle peptide>Myospheroid peptide>Abelson peptide					
VIGD[pY]VCRLCK (cysteine pairing not given here) [Nervous Fingers peptide, phosphotyrosine peptide VIGDpYVCRLCK from PeptideMine server, obtained from GL Bioscience, >95% pure]			12.41 ± 0.68 µmol/min/mg	14.79 ± 0.81 s⁻¹	19.59 ± 0.11 x 10^4 sec^-1M^-1	75.5 ± 12.5 µM	Cuticle peptide>Insulin receptor peptide>Nervous fingers peptide>Abelson peptide>Myospheroid peptide	7.9 ± 0.35 µmol/min/mg	9.42 ± 0.42 s⁻¹	7.02 ± 0.07 x 10^4 sec^-1M^-1	134 ± 14.9 µM	Insulin Receptor peptide>Nervous fingers peptide>Cuticle peptide>Myospheroid peptide>Abelson peptide					
O=[N+]([O-])c1ccc(OP(=O)(O)O)cc1 [pNPP, para-Nitrophenylphosphate]													6.49 ± 0.17 s⁻¹	1.97 ± 0.10 x 10^3 sec^-1M^-1	5.84 ± 0.15 µmol/min/mg	0.14 ± 0.01 s⁻¹	0.22 µmol/min/mg and 0.22 ± 0.01 µmol/min/mg
CDDS[pY]FGNKC (cysteine pairing not given here) [Myospheroid peptide, phosphotyrosine peptide CDDSpYFGNKC from PeptideMine server, obtained from GL Bioscience, >95% pure]			13.86 ± 0.39 µmol/min/mg	16.53 ± 0.47 s⁻¹	14.28 ± 0.05 x 10^4 sec^-1M^-1	116 ± 8.69 µM	Cuticle peptide>Insulin receptor peptide>Nervous fingers peptide>Abelson peptide>Myospheroid peptide	3.11 ± 0.12 µmol/min/mg	3.7 ± 0.15 s⁻¹	5.79 ± 0.08 x 10^4 sec^-1M^-1	63.9 ± 7.99 µM	Insulin Receptor peptide>Nervous fingers peptide>Cuticle peptide>Myospheroid peptide>Abelson peptide					
